The numbers were not newly measured in patent US20060140985A1, “Lansoprazole formulations and related processes and methods” (priority 2003, published 2006), which cites them from elsewhere.

For data set [1], the system named is gastric acid secretion. The note with it: in vivo.
Test in data set [2]: not given
The source holds these as a separate data set.

Test in data set [3]: not given
This is another data set of the same source.

Where two headings read alike, the source gives them in different places.

Consider `Cc1c(OCC(F)(F)F)ccnc1C[S+]([O-])c1nc2ccccc2[nH]1` (centres unmarked) [Lansoprazole, 2-[[[3-methyl-4 (2,2,2-trifluoroethoxy)-2-pyridyl]methyl]sulfinyl]benzimidazole], for which the solubility result runs as follows: (acetonitrile) “slightly soluble”; (dichloromethane) “slightly soluble”; (dimethylformamide) “freely soluble”; (ethanol) “sparingly soluble”; (ether) “very slightly soluble”; (ethyl acetate) “slightly soluble”. Moreover, the solubility result (hexane) was “practically insoluble”, the solubility result (methanol) is recorded as “soluble” and the solubility result (water) is given as “practically insoluble”. Besides, in data set [1], the “duration of acid inhibitory effect” value is given as “more than twenty-four hours”. For the same molecule, the metabolism result in data set [2] (liver) is listed as “extensively metabolized in the liver”. Besides, in data set [2] (plasma), the plasma elimination half-life entry is listed as “less than two hours”. Besides, the “degradation in aqueous solution” value in data set [3] (aqueous solution, pH dependence) is given as “degrades in aqueous solution, with the rate of degradation increasing with decreasing pH”. The “stability when exposed to light” value in data set [3] (light) was “stable when exposed to light for up to two months”.
